What was measured:
[1] = test system: L6-myotubes; assay: Glucose uptake in differentiated L6-myotubes (3H-2-deoxyglucose), compared to isoproterenol; format: cell-based; conditions: agonist 1×10^−5 M, 50 nM 3H-2-deoxyglucose; for Emax at 10 µM: read-out: Biological example 1: glucose uptake, activity compared to that of isoproterenol
Outline: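 Serum-starved differentiated L6 myotubes stimulated with agonist at 1×10^−5 M for 1 h 40 min, re-dosed in glucose-free medium for 20 min, then given 50 nM ^3H-2-deoxyglucose for 10 min. Uptake read by β-counting of NaOH lysates; activity expressed relative to isoproterenol.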

[2] = test system: L6-myotubes; assay: Measurement of intracellular cAMP levels in differentiated L6 cells (alpha screen cAMP kit), compared to isoproterenol; format: cell-based; conditions: Rattus norvegicus, L6, 0.25 h, agonist 1×10^−5 M, 15 min, read-out: Biological example 2: intracellular cAMP levels, activity compared to that of isoproterenol
Outline: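 L6 myoblasts were differentiated into myotubes over 7 days in 2% FBS, then serum-starved overnight. Agonist at 1×10^−5 M final was applied for 15 min in HBSS with 1% BSA, 5 mM HEPES and 1 mM IBMX, pH 7.4. After ethanol extraction and lysis, cAMP was quantified by AlphaScreen, with activity expressed relative to isoproterenol.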

SMILES	Biological example 1: glucose uptake, activity compared to that of isoproterenol [1]	Emax at 10 µM [2] [%]	Emax at 10 µM [1] [%]
CC(=O)N[C@H]1CC[C@H](CC(C)(C)NC[C@H](O)c2cncc(F)c2)CC1 [Example 87, N-((1R,4r)-4-(2-(((R)-2-(5-Fluoropyridin-3-yl)-2-hydroxyethyl)amino)-2-methylpropyl)cyclohexyl)acetamide]	+ + +	< 25	–
CC(C)(C[C@H]1CC[C@H](NS(C)(=O)=O)CC1)NC[C@H](O)c1cncc(F)c1 [Example 89, N-((1R,4r)-4-(2-(((R)-2-(5-Fluoropyridin-3-yl)-2-hydroxyethyl)amino)-2-methylpropyl)cyclohexyl)methanesulfonamide]	+ + +	< 25	–
CC(C)(CC[C@H]1CC[C@H](N)CC1)NC[C@H](O)c1cncc(F)c1 [Example 92, (R)-2-((4-((1r,4S)-4-Aminocyclohexyl)-2-methylbutan-2-yl)amino)-1-(5-fluoropyridin-3-yl)ethan-1-ol]	–	< 25	25 to 50
CC(=O)N[C@H]1CC[C@H](CCC(C)(C)NC[C@H](O)c2cncc(F)c2)CC1 [Example 93, N-((1S,4r)-4-(3-(((R)-2-(5-Fluoropyridin-3-yl)-2-hydroxyethyl)amino)-3-methylbutyl)cyclohexyl)acetamide]	+ + +	< 25	–
CC(C)(CC[C@H]1CC[C@H](NS(C)(=O)=O)CC1)NC[C@H](O)c1cncc(F)c1 [Example 94, N-((1S,4r)-4-(3-(((R)-2-(5-Fluoropyridin-3-yl)-2-hydroxyethyl)amino)-3-methylbutyl)cyclohexyl)methanesulfonamide]	+ +	< 25	–
CC(C)(NC[C@H](O)c1cncc(F)c1)[C@H]1CC[C@@H](C(=O)O)CC1 [Example 97, (1S,4s)-4-(2-(((R)-2-(5-Fluoropyridin-3-yl)-2-hydroxyethyl)amino)propan-2-yl)cyclohexane-1-carboxylic acid]	–	25 to 50	25 to 50
CC(C)(NC[C@H](O)c1cccc(F)c1)[C@H]1CC[C@@H](C(=O)O)CC1 [Example 98, (1S,4s)-4-(2-(((R)-2-(3-Fluorophenyl)-2-hydroxyethyl)amino)propan-2-yl)-cyclohexane-1-carboxylic acid]	–	< 25	25 to 50
COC(=O)[C@H]1CC[C@H](C(C)(C)NC[C@H](O)c2cccc(F)c2)CC1 [Example 99, Methyl (1R,4r)-4-(2-(((R)-2-(3-fluorophenyl)-2-hydroxyethyl)amino)propan-2-yl)cyclohexane-1-carboxylate]	+ + +	< 25	–
COC(=O)[C@H]1CC[C@H](C(C)(C)NC[C@H](O)c2cncc(F)c2)CC1 [Example 100, Methyl (1R,4r)-4-(2-(((R)-2-(5-fluoropyridin-3-yl)-2-hydroxyethyl)amino)-propan-2-yl)cyclohexane-1-carboxylate]	+ + +	< 25	–
CC(C)(NC[C@H](O)c1cccc(F)c1)[C@H]1CC[C@H](C(=O)O)CC1 [Example 101, (1R,4r)-4-(2-(((R)-2-(3-Fluorophenyl)-2-hydroxyethyl)amino)propan-2-yl)cyclohexane-1-carboxylic acid]	–	< 25	< 25
COC(=O)[C@H]1CC[C@@H](CC(C)(C)NC[C@H](O)c2cccc(F)c2)CC1 [Example 103, Methyl (1S,4s)-4-(2-(((R)-2-(3-fluorophenyl)-2-hydroxyethyl)amino)-2-methylpropyl)cyclohexane-1-carboxylate]	+ + +	< 25	–
COC(=O)[C@H]1CC[C@@H](CC(C)(C)NC[C@H](O)c2cncc(F)c2)CC1 [Example 104, Methyl (1S,4s)-4-(2-(((R)-2-(5-fluoropyridin-3-yl)-2-hydroxyethyl)amino)-2-methylpropyl)cyclohexane-1-carboxylate]	+ + +	< 25	–
CC(C)(C[C@H]1CC[C@@H](C(=O)O)CC1)NC[C@H](O)c1cccc(F)c1 [Example 105, (1S,4s)-4-(2-(((R)-2-(3-Fluorophenyl)-2-hydroxyethyl)amino)-2-methylpropyl)cyclohexane-1-carboxylic acid]	–	< 25	25 to 50
CC(C)(C[C@H]1CC[C@@H](C(=O)O)CC1)NC[C@H](O)c1cncc(F)c1 [Example 106, (1S,4s)-4-(2-(((R)-2-(5-Fluoropyridin-3-yl)-2-hydroxyethyl)amino)-2-methylpropyl)cyclohexane-1-carboxylic acid]	–	< 25	25 to 50
COC(=O)[C@H]1CC[C@H](CC(C)(C)NC[C@H](O)c2cncc(F)c2)CC1 [Example 108, Methyl (1R,4r)-4-(2-(((R)-2-(5-fluoropyridin-3-yl)-2-hydroxyethyl)amino)-2-methylpropyl)cyclohexane-1-carboxylate]	+ +	< 25	–
CC(C)(C[C@H]1CC[C@H](C(=O)O)CC1)NC[C@H](O)c1cccc(F)c1 [Example 109, (1R,4r)-4-(2-(((R)-2-(3-fluorophenyl)-2-hydroxyethyl)amino)-2-methyl-propyl)cyclohexane-1-carboxylic acid acetate]	+ +	< 25	–
CC(C)(C[C@H]1CC[C@H](C(=O)O)CC1)NC[C@H](O)c1cncc(F)c1 [Example 110, (1R,4r)-4-(2-(((R)-2-(5-fluoropyridin-3-yl)-2-hydroxyethyl)amino)-2-methylpropyl)cyclohexane-1-carboxylic acid acetate]	–	< 25	< 25
COC(=O)[C@H]1CC[C@@H](CCC(C)(C)NC[C@H](O)c2cccc(F)c2)CC1 [Example 111, Methyl (1S,4s)-4-(3-(((R)-2-(3-fluorophenyl)-2-hydroxyethyl)amino)-3-methylbutyl)cyclohexane-1-carboxylate]	+ + +	25 to 50	–
CC(C)(CC[C@H]1CC[C@@H](C(=O)O)CC1)NC[C@H](O)c1cccc(F)c1 [Example 113, (1S,4s)-4-(3-(((R)-2-(3-Fluorophenyl)-2-hydroxyethyl)amino)-3-methyl-butyl)cyclohexane-1-carboxylic acid]	–	< 25	25 to 50
CC(C)(CC[C@H]1CC[C@@H](C(=O)O)CC1)NC[C@H](O)c1cncc(F)c1 [Example 114, (1S,4s)-4-(3-(((R)-2-(5-Fluoropyridin-3-yl)-2-hydroxyethyl)amino)-3-methylbutyl)cyclohexane-1-carboxylic acid]	+ + +	< 25	–
COC(=O)[C@H]1CC[C@H](CCC(C)(C)NC[C@H](O)c2cccc(F)c2)CC1 [Example 115, Methyl (1R,4r)-4-(3-(((R)-2-(3-fluorophenyl)-2-hydroxyethyl)amino)-3-methylbutyl)cyclohexane-1-carboxylate]	+ + +	< 25	–
CC(C)(CC[C@H]1CC[C@H](C(=O)O)CC1)NC[C@H](O)c1cccc(F)c1 [Example 117, (1R,4r)-4-(3-(((R)-2-(3-Fluorophenyl)-2-hydroxyethyl)amino)-3-methyl-butyl)cyclohexane-1-carboxylic acid]	–	< 25	< 25
CC(C)(CC[C@H]1CC[C@H](C(=O)O)CC1)NC[C@H](O)c1cncc(F)c1 [Example 118, (1R,4r)-4-(3-(((R)-2-(5-Fluoropyridin-3-yl)-2-hydroxyethyl)amino)-3-methylbutyl)cyclohexane-1-carboxylic acid]	–	< 25	25 to 50
CCOC(=O)CO[C@H]1CC[C@H](C(C)(C)NC[C@H](O)c2cccc(F)c2)CC1 [Example 123, Ethyl 2-(((1R,4r)-4-(2-(((R)-2-(3-fluorophenyl)-2-hydroxyethyl)amino)-propan-2-yl)cyclohexyl)oxy)acetate]	+ + +	< 25	–
CCOC(=O)CO[C@H]1CC[C@@H](C(C)(C)NC[C@H](O)c2cccc(F)c2)CC1 [Example 124, Ethyl 2-(((1S,4s)-4-(2-(((R)-2-(3-fluorophenyl)-2-hydroxyethyl)amino-)propan-2-yl)cyclohexyl)oxy)acetate]	+ +	< 25	–
CCOC(=O)CO[C@H]1CC[C@H](C(C)(C)NC[C@H](O)c2cncc(F)c2)CC1 [Example 125, Ethyl 2-(((1R,4r)-4-(2-(((R)-2-(5-fluoropyridin-3-yl)-2-hydroxyethyl)-amino)propan-2-yl)cyclohexyl)oxy)acetate]	+ + +	< 25	–
CC(C)(NC[C@H](O)c1cccc(F)c1)[C@H]1CC[C@H](OCC(=O)O)CC1 [Example 126, 2-(((1R,4r)-4-(2-(((R)-2-(3-Fluorophenyl)-2-hydroxyethyl)amino)propan-2-yl)cyclohexyl)oxy)acetic acid]	+ +	< 25	–
CC(C)(NC[C@H](O)c1cncc(F)c1)[C@H]1CC[C@H](OCC(=O)O)CC1 [Example 127, 2-(((1R,4r)-4-(2-(((R)-2-(5-Fluoropyridin-3-yl)-2-hydroxyethyl)amino)-propan-2-yl)cyclohexyl)oxy)acetic acid]	+ +	< 25	–

Reference: patent US20240390298A1, “CYCLOHEXYL BETA-HYDROXY ALKYL AMINES AND MEDICAL USES THEREOF” (ATROGI AB, priority 2021, published 2024)
